Drawing on PubChem BioAssay (NCI), this text covers TGI for 12 molecules.

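Cultured in 96-well plates, cells were exposed to test compound for 48 hours across five concentrations. The concentration for full growth arrest is given as TGI.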

Some test systems named below: A498 renal; CAKI-1 renal; COLO 205 colon; HCC-2998 colon; HOP-62 NSCLC; MALME-3M melanoma; MCF7 breast; MDA-MB-231 breast; MDA-N; NCI-H460 lung; OVCAR-3 ovarian; SF-295 CNS; SK-MEL-28 melanoma; SK-MEL-5 melanoma; SK-OV-3 ovarian; SN12C renal; TK-10 renal; UO-31 renal; RPMI-8226 leukemia.
Common to all, as to test: DTP human tumour cell line panel, 48 h

For orientation: TGI means the concentration giving total growth inhibition. Turning to `CCCC(=O)OCC1(CO)C/C(=C/CC(C(C)C)C(C)C)C(=O)O1` (configuration not stated), the total growth inhibition concentration (TGI) with A498 renal, in the experiment on CAKI-1 renal, in the experiment with COLO 205 colon, with HCC-2998 colon, in the experiment on HOP-62 NSCLC and with MALME-3M melanoma was > 100 µM throughout. The TGI in the experiment with MCF7 breast, with MDA-MB-231 breast, in the experiment on MDA-N, in the experiment with NCI-H460 lung, with OVCAR-3 ovarian and in the experiment with SF-295 CNS was > 100 µM in each case. Besides, the TGI in the experiment with SK-MEL-28 melanoma, with SK-MEL-5 melanoma, in the experiment with SK-OV-3 ovarian, in the experiment with SN12C renal, with TK-10 renal and in the experiment with UO-31 renal was > 100 µM throughout.

For `CCNc1nc(N)c(C(=O)c2cccs2)s1`, the TGI is 82.6 µM in the experiment on A498 renal; 59.9 µM in the experiment with CAKI-1 renal; 22.8 µM in the experiment on COLO 205 colon; > 100 µM in the experiment with HCC-2998 colon; > 100 µM with HOP-62 NSCLC; > 100 µM with MALME-3M melanoma. In addition, the TGI in the experiment on MCF7 breast, in the experiment with MDA-MB-231 breast, with MDA-N, in the experiment on NCI-H460 lung, in the experiment on OVCAR-3 ovarian and in the experiment on SF-295 CNS was > 100 µM in each case. The concentration for total growth inhibition (TGI) with SK-MEL-28 melanoma is > 100 µM; in the experiment on SK-MEL-5 melanoma, 44.8 µM; with SK-OV-3 ovarian it was > 100 µM; with SN12C renal, > 100 µM; with TK-10 renal it was > 100 µM; in the experiment on UO-31 renal, > 100 µM.

As to `C[n+]1c2ccccc2c(C(=O)NC(CCCN=C(N)N)C(=O)O)c2ccccc21` (configuration not stated), the TGI in the experiment on A498 renal, in the experiment on COLO 205 colon, in the experiment on HCC-2998 colon, with HOP-62 NSCLC, with MALME-3M melanoma and in the experiment on MCF7 breast was > 100 µM each time. For the same molecule, the TGI with MDA-MB-231 breast, in the experiment on MDA-N, in the experiment on NCI-H460 lung, in the experiment on OVCAR-3 ovarian, in the experiment on RPMI-8226 leukemia and in the experiment on SF-295 CNS was > 100 µM in each case. The TGI in the experiment with SK-MEL-28 melanoma, with SK-MEL-5 melanoma, in the experiment on SK-OV-3 ovarian, in the experiment with SN12C renal, in the experiment on TK-10 renal and in the experiment on UO-31 renal was > 100 µM each time.

With `CCN(CC)CCSc1n[nH]c(-c2c[nH]c3nc(C)ccc3c2=O)n1`, the total growth inhibition concentration (TGI) in the experiment with A498 renal, with CAKI-1 renal, in the experiment with COLO 205 colon, in the experiment with HOP-62 NSCLC, in the experiment on MALME-3M melanoma and with MCF7 breast was > 100 µM throughout. In addition, the total growth inhibition concentration (TGI) in the experiment with MDA-MB-231 breast, with MDA-N, in the experiment with NCI-H460 lung, in the experiment with OVCAR-3 ovarian, with RPMI-8226 leukemia and in the experiment on SF-295 CNS was > 100 µM in each case. Besides, the concentration for total growth inhibition (TGI) in the experiment with SK-MEL-28 melanoma, with SK-MEL-5 melanoma, in the experiment on SN12C renal, with TK-10 renal and with UO-31 renal was > 100 µM each time.

For the molecule `O=C1NC(=O)[C@@H](OCC2CCCCC2)[C@@H]2OCC3OC(C(O)C3O)C12` (some centres not stated), the TGI in the experiment on A498 renal, in the experiment with CAKI-1 renal, with COLO 205 colon, with HCC-2998 colon, with HOP-62 NSCLC and with MALME-3M melanoma was > 100 µM throughout. For the same molecule, the TGI in the experiment with MCF7 breast, in the experiment with MDA-MB-231 breast, with MDA-N, in the experiment on NCI-H460 lung, with OVCAR-3 ovarian and with SF-295 CNS was > 100 µM each time. The total growth inhibition concentration (TGI) in the experiment on SK-MEL-28 melanoma, in the experiment with SK-MEL-5 melanoma, in the experiment with SK-OV-3 ovarian, in the experiment with SN12C renal and in the experiment with TK-10 renal was > 100 µM throughout.

Take `C=C1C(=O)CCC1C(=O)O` (configuration not stated): the TGI with A498 renal, with COLO 205 colon, with HCC-2998 colon, in the experiment on HOP-62 NSCLC, in the experiment on MALME-3M melanoma and in the experiment on MCF7 breast was > 100 µM each time. Besides, the TGI in the experiment on MDA-MB-231 breast, in the experiment on MDA-N, with NCI-H460 lung, in the experiment with OVCAR-3 ovarian, in the experiment with RPMI-8226 leukemia and in the experiment on SF-295 CNS was > 100 µM throughout. For the same molecule, the TGI with SK-MEL-28 melanoma, in the experiment on SK-MEL-5 melanoma, in the experiment with SK-OV-3 ovarian, in the experiment with SN12C renal, in the experiment on TK-10 renal and in the experiment with UO-31 renal was > 100 µM throughout.

As to `COc1cc(OC)cc(-n2c(N)c(-c3nc4ccccc4s3)c3ccc([N+](=O)[O-])cc3c2=O)c1`, the TGI with A498 renal was 76.7 µM; in the experiment with CAKI-1 renal it was > 100 µM; in the experiment with COLO 205 colon, > 100 µM; in the experiment with HCC-2998 colon, > 100 µM; with MALME-3M melanoma, > 100 µM; in the experiment on MCF7 breast it was > 100 µM. Also, the TGI in the experiment with MDA-MB-231 breast, in the experiment with MDA-N, in the experiment with NCI-H460 lung, with RPMI-8226 leukemia, with SF-295 CNS and with SK-MEL-28 melanoma was > 100 µM in each case. In addition, the TGI with SK-MEL-5 melanoma is > 100 µM; with SK-OV-3 ovarian it was > 100 µM; with SN12C renal it was 82.8 µM; with TK-10 renal, 38.8 µM; in the experiment with UO-31 renal, > 100 µM.

On to `CC(C)C(C/C=C1/CC(CO)(COC(=O)C(C)(C)C)OC1=O)C(C)C` (configuration not stated), for which the total growth inhibition concentration (TGI) with A498 renal came out at 21.8 µM; in the experiment on CAKI-1 renal, 17.9 µM; with COLO 205 colon, 5.32 µM; in the experiment on HCC-2998 colon, 15.2 µM; in the experiment with HOP-62 NSCLC, 18.8 µM; in the experiment on MALME-3M melanoma, 19.2 µM. For the same molecule, the concentration for total growth inhibition (TGI) in the experiment on MCF7 breast is 35.6 µM; in the experiment with MDA-MB-231 breast it was 17.1 µM; in the experiment with MDA-N it was 19.6 µM; with NCI-H460 lung it was 25.7 µM; in the experiment on OVCAR-3 ovarian it was 29.9 µM; in the experiment with SF-295 CNS, 17.9 µM. Besides, the TGI was 30.6 µM in the experiment on SK-MEL-28 melanoma; 20.7 µM in the experiment on SK-MEL-5 melanoma; 30.7 µM with SK-OV-3 ovarian; 23.3 µM in the experiment with SN12C renal; 18 µM in the experiment with TK-10 renal; 17.3 µM in the experiment on UO-31 renal.

For `OC12CC3c4ccccc4NC3C3Oc4cccc5c4C31CCN(CC1CC1)C2C5` (configuration not stated), the TGI was 32.2 µM in the experiment with A498 renal; 32.4 µM with CAKI-1 renal; 39.7 µM with COLO 205 colon; 32.8 µM in the experiment with HOP-62 NSCLC; 34.9 µM with MALME-3M melanoma; 32.8 µM in the experiment with MCF7 breast. The TGI in the experiment on MDA-MB-231 breast turned out to be 32.4 µM; with MDA-N, 35.1 µM; in the experiment on NCI-H460 lung, 32.4 µM; with OVCAR-3 ovarian it was 30.7 µM; in the experiment with RPMI-8226 leukemia, 48.2 µM; in the experiment on SF-295 CNS, 94.1 µM. Moreover, the concentration for total growth inhibition (TGI) in the experiment on SK-MEL-28 melanoma turned out to be 28.6 µM; in the experiment with SK-MEL-5 melanoma, 31.5 µM; in the experiment with SK-OV-3 ovarian, 34.6 µM; in the experiment on SN12C renal it was 34.4 µM; in the experiment on TK-10 renal, 31.1 µM; in the experiment with UO-31 renal it was 30.4 µM.

For `CCN=C=NCCCN(C)C`, the TGI in the experiment with A498 renal, in the experiment on CAKI-1 renal, in the experiment with COLO 205 colon, with HOP-62 NSCLC, in the experiment on MALME-3M melanoma and in the experiment on MCF7 breast was > 100 µM each time. In addition, the TGI in the experiment on MDA-MB-231 breast, with MDA-N, in the experiment with NCI-H460 lung, in the experiment with OVCAR-3 ovarian, with RPMI-8226 leukemia and in the experiment on SF-295 CNS was > 100 µM each time. Also, the TGI with SK-MEL-28 melanoma, in the experiment with SK-MEL-5 melanoma, with SK-OV-3 ovarian, in the experiment on SN12C renal, in the experiment on TK-10 renal and in the experiment with UO-31 renal was > 100 µM in each case.

`N#Cc1c(N)c2c(c(-c3ccccc3)c1-c1ccccc1)C(=O)N(Nc1ccccc1)C2=O`: the TGI with A498 renal is > 100 µM; in the experiment with CAKI-1 renal, > 100 µM; with COLO 205 colon, 56.7 µM; in the experiment on HCC-2998 colon it was > 100 µM; with MALME-3M melanoma it was > 100 µM; with MCF7 breast, > 100 µM. The TGI was > 100 µM with MDA-MB-231 breast; > 100 µM in the experiment on MDA-N; > 100 µM in the experiment with NCI-H460 lung; 78.1 µM in the experiment on OVCAR-3 ovarian; > 100 µM in the experiment with RPMI-8226 leukemia; > 100 µM in the experiment on SF-295 CNS. Also, the TGI in the experiment on SK-MEL-28 melanoma is > 100 µM; in the experiment with SK-MEL-5 melanoma, 78.5 µM; in the experiment on SN12C renal, > 100 µM; in the experiment with TK-10 renal it was > 100 µM; in the experiment on UO-31 renal it was 78.3 µM.

Consider `CCOC(=O)c1c(C)noc1/N=N/N(CCO)CCO`, for which the TGI with A498 renal was 75.3 µM; in the experiment on CAKI-1 renal, > 100 µM; in the experiment with COLO 205 colon, 70.1 µM; with HCC-2998 colon it was 78.3 µM; with HOP-62 NSCLC, > 100 µM; in the experiment on MALME-3M melanoma it was > 100 µM. In addition, the total growth inhibition concentration (TGI) is > 100 µM in the experiment with MCF7 breast; > 100 µM in the experiment on MDA-MB-231 breast; > 100 µM in the experiment with MDA-N; > 100 µM in the experiment on NCI-H460 lung; 59.4 µM with OVCAR-3 ovarian; > 100 µM in the experiment with SF-295 CNS. Moreover, the concentration for total growth inhibition (TGI) was > 100 µM in the experiment on SK-MEL-28 melanoma; 32.5 µM with SK-MEL-5 melanoma; > 100 µM in the experiment with SK-OV-3 ovarian; > 100 µM in the experiment with SN12C renal; > 100 µM with TK-10 renal; 77.2 µM with UO-31 renal.
